The assay deals with protein tyrosine kinase v-Abl (Abelson murine leukemia virus, UniProt P00521). To be noted: Library Sub-Set 4 (X-Tyr-X-X-X).
protein tyrosine kinase v-Abl, sequence (P00521 whole entry): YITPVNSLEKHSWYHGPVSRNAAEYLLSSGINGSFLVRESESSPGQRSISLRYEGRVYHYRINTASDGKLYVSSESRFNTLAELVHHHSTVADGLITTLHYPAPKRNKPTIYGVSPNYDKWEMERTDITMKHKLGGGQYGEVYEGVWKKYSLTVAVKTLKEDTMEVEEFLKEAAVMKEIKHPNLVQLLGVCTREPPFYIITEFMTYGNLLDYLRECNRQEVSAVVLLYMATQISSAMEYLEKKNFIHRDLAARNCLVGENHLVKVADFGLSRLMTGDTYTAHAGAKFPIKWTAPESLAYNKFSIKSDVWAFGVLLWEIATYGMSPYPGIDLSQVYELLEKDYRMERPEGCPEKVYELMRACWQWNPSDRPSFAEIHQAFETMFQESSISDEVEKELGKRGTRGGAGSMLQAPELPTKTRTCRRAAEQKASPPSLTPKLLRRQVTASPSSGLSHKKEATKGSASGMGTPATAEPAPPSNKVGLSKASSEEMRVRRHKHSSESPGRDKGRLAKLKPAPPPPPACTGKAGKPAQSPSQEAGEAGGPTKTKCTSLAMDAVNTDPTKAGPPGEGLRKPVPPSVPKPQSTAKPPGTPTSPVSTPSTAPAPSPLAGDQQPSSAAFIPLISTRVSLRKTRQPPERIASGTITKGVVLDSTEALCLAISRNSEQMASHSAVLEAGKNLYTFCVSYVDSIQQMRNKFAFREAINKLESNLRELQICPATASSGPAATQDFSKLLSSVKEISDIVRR

Source text: In the fourth application of this invention, a recombinant form of the Abelson murine leukaemia virus protein tyrosine kinase v-Abl was used in an in vitro phosphorylation reaction to phosphorylate the library sub-set 4 which scans the sequence −1 to +3 around a zero position tyrosine residue, as previously performed for the ZAP-70 library. Detection of phosphoryrosine was achieved using anti-phosphotyrosine antibody detection in an ELISA assay using tetramethylbenzidine substrate and recording absorbance at 450 nm. […] Deconvolution of the hit peptides was performed as described in WO 97/42216.
Library peptides were phosphorylated in pools of 20 peptides at a final concentration of 1 μM total peptide in 50 mM HEPES, pH 7.5, 0.1% Triton X-100, 100 μM ATP, 10 mM MnCl2, 1 mM DTT and 0.2 mM sodium orthovanadate for 30 minutes at 30° C. These reaction mixtures were then stopped using 100 mM EDTA, 6 mM adenosine, transferred to strepavidin-coated microtiter plates and allowed to bind for 30 minutes at 20° C. Unincorporated reaction products were washed from the plate using PBS/0.1% Tween 20 then plate incubation performed with anti-phosphotyrosine antibody (Sigma mouse monoclonal clone PT66) in 2% BSA/PBS/Tween for 1 hour at 20° C. […] HRP detection was then performed with tetramethylbenzidine (TMB) substrate and measuring absorbance at 450 nm using a spectrophotometer (Dynex MRX). […]

On to “Serine-tyrosine-phenylalanine-histamine-glutamine”, for which the “substrate deconvoluted from library sub-set” value is given as “active site substrate recognition substrate”.

The record behind these values is patent US20020155503A1 (priority 1997, published 2002).
